Reference: publication PMC6465774 (Frontiers in Pharmacology, 2019)
Counter-ions that a name gives are not always drawn.

Legend:
respiratory functions = details: dose of 253 nmol/kg; ref our previous work; cited from earlier work
[1] = tested on: STZ treated diabetic rats with allodynia; details: rat, in vivo
[2] = tested on: STZ treated diabetic and weight matched non-diabetic rats (paw pressure withdrawal threshold); details: rat, in vivo
[3] = tested on: STZ treated neuropathic rats; assay: Antagonist effect of co-administered NAL-M on the antiallodynic effect of s.c. opioids (DPA); type: in vivo, rat
[4] = tested on: gastric emptying in weight-matched control rats; details: 0.1 mg/kg s.c. 30 min before methylcellulose, weight-matched control animals, n = 7
Experimental: After 20 min the rats were sacrificed and the stomachs were removed after clamping the pylorus and cardia. […] Gastric emptying (%) was calculated as follows: [1 – (absorbance of sample / maximal absorbance)] × 100. Maximal absorbance was measured by processing the test meal alone, as described above.
In a separate experiment, weight match animals were treated either with saline, or with clonidine (0.1 mg/kg), an alpha2 adrenoceptor agonist and well-known inhibitor of gastric emptying, subcutaneously 30 min before the methylcellulose administration.

STZ treated animals = tested on: STZ treated animals; parameters: method as in Yamamoto et al., 2009; details: doses up to 10 mg/kg (approximately 31 μmol/kg), 7 weeks following STZ treatment; ref Yamamoto et al., 2009; cited from earlier work
MOR = target: T1, MOR (Rattus norvegicus, UniProt P33535); assay: [3H]DAMGO saturation binding in dorsal spinal cord membranes
T1 construct: incubating 50–100 μg of membrane protein of lumbar dorsal horn with 0.1- 4 nM; from tissue; host or cells: rat lumbar (L3-5) dorsal spinal cord / dorsal horn membranes, diabetic and control rats
T1 sequence (P33535 whole entry): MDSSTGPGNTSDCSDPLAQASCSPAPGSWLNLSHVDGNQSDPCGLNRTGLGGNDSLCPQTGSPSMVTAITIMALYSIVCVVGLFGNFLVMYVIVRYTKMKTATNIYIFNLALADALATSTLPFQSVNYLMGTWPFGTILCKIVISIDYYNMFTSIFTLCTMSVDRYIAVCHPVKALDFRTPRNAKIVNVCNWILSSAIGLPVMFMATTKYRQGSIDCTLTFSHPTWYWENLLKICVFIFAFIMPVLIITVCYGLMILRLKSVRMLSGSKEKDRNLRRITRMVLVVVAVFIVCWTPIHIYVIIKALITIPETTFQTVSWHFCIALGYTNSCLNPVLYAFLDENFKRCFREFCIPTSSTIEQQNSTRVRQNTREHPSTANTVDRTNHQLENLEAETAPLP

Compound	antiallodynic effect at 12th week of diabetes at the lowest antiallodynic dose [1]	lowest dose that significantly attenuated the allodynia (lowest antiallodynic dose) ([1]; sc)	ED30 (effective dose producing 30% effect), diabetic animals ([2]; sc)	ED30 (effective dose producing 30% effect), non-diabetic animals ([2]; sc)	dose inducing significant antinociceptive action in naïve (weight matched) rats ([2]; sc)	time of peak antinociceptive effect ([2]; sc)	also measured
CO[C@@]12C=C[C@H](OS(=O)(=O)O)[C@@H]3Oc4c(O)ccc5c4[C@@]31CCN(C)[C@@H]2C5 [14-O-MeM6SU, 14-O-methylmorphine-6-O-sulfate]	produced antiallodynic effects	253 nmol/kg	434 nmol/kg	335 nmol/kg	506 nmol/kg	60 min	respiratory depression (respiratory functions): no respiratory depression; antiallodynic action in diabetic rats, all tested doses ([1]; sc): significantly ameliorated the allodynia; times higher potency than morphine in diabetic conditions based on ED30 values [2]: 48 times; antinociceptive action in naïve rats at 253 nmol/kg ([2]; sc): failed to show any significant antinociceptive action
C=CC[N+]1(C)CC[C@]23c4c5ccc(O)c4O[C@H]2C(=O)CC[C@@]3(O)[C@H]1C5 (some centres unmarked) [NAL-M, Naloxone methiodide]							effect of co-administered NAL-M on the antiallodynic action of 14-O-MeM6SU and morphine ([3]; NAL-M 10.6 μmol/kg s.c., co-administered with s.c. 14-O-MeM6SU or morphine): failed to alter the antiallodynic action; effect of NAL-M alone ([3]; NAL-M alone, n = 5, data not shown): no effect
Clc1cccc(Cl)c1N=C1NCCN1 [clonidine, clonidine-hydrochloride]							gastric emptying [4]: 55 ± 2%
CN1CC[C@]23c4c5ccc(O)c4O[C@H]2[C@@H](O)C=C[C@H]3[C@H]1C5 [Morphine, morphine hydrochloride]	produced antiallodynic effects	40000 nmol/kg	20692 nmol/kg	6589 nmol/kg	≥ 2500 nmol/kg	30 min	effectiveness of morphine in doses up to 10 mg/kg (STZ treated animals): ineffectiveness; ED30diabetic/ED30non-diabetic [2]: 7
C[C@@H](NC(=O)[C@@H](N)Cc1ccc(O)cc1)C(=O)NCC(=O)N(C)[C@@H](Cc1ccccc1)C(=O)NCCO [DAMGO, Tyr-D-Ala-Gly-(NMe)Phe-Gly-ol]							Bmax of [3H]DAMGO binding, controls (MOR; dorsal horn of control rats): 23.55 ± 4.36 fmol/mg; Bmax of [3H]DAMGO binding, diabetic rats (MOR; dorsal horn of diabetic rats): 13.11 ± 1.85 fmol/mg
